According to patent US10407409B2, “6-(5-hydroxy-1H-pyrazol-1-yl)nicotinamide inhibitors of PHD” (Takeda Pharmaceutical Company Limited, priority 2013, dated 2019):

Assays:
[1] = target: PHD2 enzyme (residues 181-417) (Homo sapiens (Human), UniProt Q9GZT9); experiment: Inhibition of PHD enzyme (LC/MS peptide hydroxylation assay); assay type: biochemical; conditions: PHD2 (residues 181-417) 5 nM, 60 min pre-incubation; -log(IC50), IC50 molar
How it was run: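 PHD2 (5 nM final) preincubated with inhibitor 60 min at RT in 50 mM HEPES, 50 mM KCl, 0.5 mM TCEP, 2 uM FeCl2, 0.1 mg/ml BSA, pH 7.3. Reaction started with biotin-peptide (1 uM), 2-oxoglutarate (2 uM), ascorbate (1 mM), quenched at 60 min; hydroxylated product by LC/MS, reported as pIC50.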

[2] = tested on: HIF1a protein in H9c2 rat cardiomyocytes; experiment: Cell-based HIF-alpha stabilization assay (inhibition of PHD in cells); conditions: Rattus norvegicus, H9c2, 24 h, 24 hrs compound incubation, HIF1a protein by ELISA, read-out: Inhibition of PHD in cells (pEC50) (converted)
How it was run: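 Rat H9c2 cardiomyocytes, cultured 24 h, were treated 24 h with an 11-point serial dilution of compound. HIF1a in whole-cell lysates was quantified by ELISA as % of the maximal desferrioxamine response. EC50 came from curve fitting; EC50pos is the concentration reaching 50% of the desferrioxamine maximum.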

C57 mice = experiment: In vivo cardioprotection assay, Langendorff global ischemia/reperfusion, mice; conditions: oral, 60 min reperfusion; for reduced area of the infarct compared to vehicle control: 4 h after dosing, 30 min global ischemia
Experimental: (§1) Example C In Vivo Cardioprotection Assay
(§2) PHD inhibitor or vehicle was administered orally to 8-week old male C57 mice or Sprague Dawley rats. Four hours after dosing, hearts were removed quickly and perfused in a retrograde manner with modified Krebs-Henseleit buffer in a Langendorff apparatus at constant pressure (80 mmHg). To measure infarct size, hearts were first perfused for 20 min to reach equilibrium and then subjected to a 30-minute global ischemia (no-flow) period followed by a 60-min reperfusion period in mice or 90-min reperfusion in rats. The ventricles were cut transversely into 5 sections. The slices were stained 1% 2,3,5-triphenyl tetrazolium chloride (TTC) and scanned to measure the infarct area and the total area. Cardiac injury was assessed by measuring lactate dehydrogenase (LDH) release to coronary effluent during the 60-min reperfusion period (in mice only). The amount of LDH release was determined using an LDH activity assay kit (MBL International Corp.) as expressed as % of vehicle treated hearts.

Sprague Dawley rats = experiment: In vivo cardioprotection assay, Langendorff global ischemia/reperfusion, rats; conditions: oral, 5 mg/kg, 30 min global ischemia, 90 min reperfusion
Experimental: as §1, §2

VEGF = experiment: Heart gene changes for vascular endothelial growth factor (VEGF), qRT-PCR; assay type: in vivo, mice; conditions: 60 mg/kg
Experimental: Example D Determination of Heart Gene Changes for Vascular Endothelial Growth Factor (VEGF)
PHD inhibitor or vehicle were administered orally to male C57BL/6 in groups of four. The compounds were formulated in 30% hydroxypropyl beta-cyclodextrin in 50 mM Sodium Phosphate pH7.4 at doses of 30 mg/kg and 60 mg/kg. Two hours after dosing the mice were euthanized by CO2 and the hearts were removed quickly, sectioned into 2 pieces; the lower (apical) section was snap frozen and stored at −80° C. and analyzed for VEGF gene changes applying qRT-PCR and using Life Technologies #4392938 and an RNA extraction protocol using Qiagen #74881 RNeasy 96 Universal Tissue Kit. Standards are made from RNA from combined vehicle treated animals at a concentration of 100 μg/mL, a 7 point curve is made with 1:4 dilutions and a blank. Samples are run on using RNA-to-CT 1-Step method using a StepOnePlus Real-Time PCR System from Applied Biosystems Relative quantitation is expressed by dividing the quantity of VEGF by the quantity of the reference gene. Treatment groups and vehicle control were combined and averaged.

Sequence of PHD2 enzyme (residues 181-417) (Q9GZT9 181-417): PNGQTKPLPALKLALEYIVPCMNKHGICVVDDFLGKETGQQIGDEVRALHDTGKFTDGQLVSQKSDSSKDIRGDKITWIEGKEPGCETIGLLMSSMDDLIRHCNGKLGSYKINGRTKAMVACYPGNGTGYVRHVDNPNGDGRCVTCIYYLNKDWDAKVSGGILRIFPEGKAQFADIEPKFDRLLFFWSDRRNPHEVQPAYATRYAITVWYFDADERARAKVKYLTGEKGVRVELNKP

SMILES: CCN1CCN(C(=O)c2ccc(-n3ncc(-c4ccc(C#N)cc4C)c3O)nc2)CC1 [Example 282, 4-(1-(5-(4-ethylpiperazine-1-carbonyl)pyridin-2-yl)-5-hydroxy-1H-pyrazol-4-yl)-3-methylbenzonitrile]
- PHD Inhibition (pIC50) [1]: 8.00
- EC50 [2]: 575 nM
- reduction of LDH released to the coronary effluent (C57 mice; 10 mg/kg): 51%
- reduced area of the infarct compared to vehicle control (C57 mice; 10 mg/kg): 50%
- reduction of LDH released to the coronary effluent (C57 mice; 30 mg/kg): 56%
- reduced area of the infarct compared to vehicle control (C57 mice; 30 mg/kg): 59%
- reduced area of the infarct (Sprague Dawley rats): 30%
- greater VEGF mRNA production compared to the compound of Example R1 (VEGF; mouse heart): 2 fold
- VEGF % Increase Compared to Control (VEGF; male C57BL/6 mice, oral, heart, 2 h after dosing): 203.1%
